Earlier results on 7 compounds are cited in PubChem BioAssay AID1259409 (Chemical Carcinogenesis Research Information System (CCRIS), 2018).

In the series the test system is rodent chemically induced tumor inhibition, incidence and multiplicity. Description: CCRIS tumor inhibitor studies. The settings on record: for outcome: Carcinogen: 2-Amino-1-methyl-6-phenylimidazo[4,5-b]pyridine (105650-23-5), Dose [Inhibitor]: 0.2% in drinking water for 4 wk (Study duration 48 wk), Route [Inhibitor]: Oral, Species: Rat, Strain/Sex: Sprague Dawley/Female, Dose [Carcinogen]: 100 mg/kg twice a wk for 4 wk (Test material solvent: corn oil), Promoter: None used.

As for `CCCCCCCCCCCCCCCCCCOC1=C(O)C([C@@H](O)CO)OC1=O` (stereo partly specified), the “tumour outcome (control, treated, inhibition, significance)” value was 17/43 (40%), 20/39 (51%), -28%, not calculated (Carcinogen: NONE USED, Dose [Inhibitor]: 0, 0.1% IN DIET FOR DURATION OF STUDY (STUDY DURATION: 16 MO), Route [Inhibitor]: ORAL, Species: MOUSE, Strain/Sex: C3H/HENCRJ/MALE, Target Tissue: Type of Lesion: LIVER: ADENOMA, Promoter: NONE USED) and 11/43 (26%), 2/39 (5%), 81%, p<0.05 (Carcinogen: NONE USED, Dose [Inhibitor]: 0, 0.1% IN DIET FOR DURATION OF STUDY (STUDY DURATION: 16 MO), Route [Inhibitor]: ORAL, Species: MOUSE, Strain/Sex: C3H/HENCRJ/MALE, Target Tissue: Type of Lesion: LIVER: CARCINOMA, Promoter: NONE USED).
For the compound `O=NO`, the “tumour outcome (control, treated, inhibition, significance)” value reads like this: (Carcinogen: 2-AMINO-1-METHYL-6-PHENYL-1H-IMIDAZO[4,5-B]PYRID INE, 105650-23-5, Dose [Inhibitor]: 0, 0.2% IN DRINKING WATER FOR 4 WK BEGINNING AT 6 WK OF AGE (STUDY DURATION: 48 WK), Route [Inhibitor]: ORAL, Species: RAT, Strain/Sex: SPRAGUE-DAWLEY/FEMALE, Target Tissue: Type of Lesion: MAMMARY GLAND: ADENOCARCINOMA, Dose [Carcinogen]: 100 MG/KG BW 2/WK FOR 4 WK CONCURRENT WITH INHIBITOR, Promoter: NONE USED) 11/20 (55%), 6/10 (60%), -9%, not significant; (Carcinogen: 2-AMINO-1-METHYL-6-PHENYL-1H-IMIDAZO[4,5-B]PYRID INE, 105650-23-5, Dose [Inhibitor]: 0, 0.2% IN DRINKING WATER FOR 4 WK BEGINNING AT 6 WK OF AGE (STUDY DURATION: 48 WK), Route [Inhibitor]: ORAL, Species: RAT, Strain/Sex: SPRAGUE-DAWLEY/FEMALE, Target Tissue: Type of Lesion: MAMMARY GLAND: FIBROADENOMA, Dose [Carcinogen]: 100 MG/KG BW 2/WK FOR 4 WK CONCURRENT WITH INHIBITOR, Promoter: NONE USED) 3/20 (15%), 2/10 (20%), -33%, not significant. For the same compound, the outcome (Target Tissue: Type of Lesion: Mammary gland: Carcinoma) is recorded as 11/20 (55%), 6/10 (60%), not significant and the outcome (Target Tissue: Type of Lesion: Mammary gland: Fibroadenoma) is on record as 3/20 (15%), 2/10 (20%), not significant.
Regarding `CC(C)(Oc1ccc(CCNC(=O)c2ccc(Cl)cc2)cc1)C(=O)O`, the “tumour outcome (control, treated, inhibition, significance)” value runs as follows: (Carcinogen: AZOXYMETHANE (25843-45-2), Dose [Inhibitor]: 0, 0.05% ADMINISTERED 1 WK AFTER END OF DEXTRAN SODIUM SULFATE TREATMENT FOR 14 WKS (STUDY DURATION: 17 WKS), Route [Inhibitor]: DIET, Species: MOUSE, Strain/Sex: CD-1/FEMALE (10,10)/(10,10), Target Tissue: Type of Lesion: COLON: ADENOCARCINOMA, Dose [Carcinogen]: 10 MG/KG ONCE, Promoter: DEXTRAN SODIUM SULFATE (9011-18-1)) 10/10 (100%), 6/10 (60%), 40%, p<0.05; (Carcinogen: AZOXYMETHANE (25843-45-2), Dose [Inhibitor]: 0, 0.05% ADMINISTERED 1 WK AFTER END OF DEXTRAN SODIUM SULFATE TREATMENT FOR 14 WKS (STUDY DURATION: 17 WKS), Route [Inhibitor]: DIET, Species: MOUSE, Strain/Sex: CD-1/FEMALE (10,10)/(10,10), Target Tissue: Type of Lesion: COLON: ADENOMA, Dose [Carcinogen]: 10 MG/KG ONCE, Promoter: DEXTRAN SODIUM SULFATE (9011-18-1)) 10/10 (100%), 7/10 (70%), 30%, not significant.
As to `CCC(C)C1NC(=O)C(C(C)=O)=C1O` (stereo unspecified), where the note is “Carcinogen: 7,12-DIMETHYLBENZ[A]ANTHRACENE, 57-97-6, Dose [Inhibitor]: 0, 250 UG 3/WK APPLIED 30 MIN PRIOR TO EACH PROMOTER DOSE FOR 140 D (STUDY DURATION: 140 D), Route [Inhibitor]: DERMAL, Species: MOUSE, Strain/Sex: SWISS/FEMALE, Target Tissue: Type of Lesion: SKIN: TUMOR, Dose [Carcinogen]: 200 NMOL IN 100 µL ACETONE ONCE, Promoter: 12-O-TETRADECANOYLPHORBOL-13-ACETATE, 16561-29-8”, the “tumour outcome (control, treated, inhibition, significance)” value was 100%, 70%, 30%, not calculated.
In the case of `Cc1ncc(CO)c(CO)c1O`, the “tumour outcome (control, treated, inhibition, significance)” value is 17/19 (89%), 17/18 (94%), -6%, not calculated (Carcinogen: 7,12-DIMETHYLBENZ[A]ANTHRACENE, 57-97-6, Dose [Inhibitor]: 0.04% IN DRINKING WATER DAILY STARTING 4 WK BEFORE CARCINOGEN TREATMENT AND CONTINUING FOR DURATION OF STUDY (STUDY DURA, Route [Inhibitor]: ORAL, Species: MOUSE, Strain/Sex: 101/MALE, FEMALE, Target Tissue: Type of Lesion: SKIN: PAPILLOMA, Dose [Carcinogen]: 225 UG IN 0.15 ML ACETONE ONCE, Promoter: CROTON OIL, 8001-28-3); 22/29 (76%), 26/33 (79%), -4%, not significant (Carcinogen: HYDRAZINE SULFATE, 10034-93-2, Dose [Inhibitor]: 1.1 MG/D IN DIET STARTING 1 WK PRIOR TO ADMINISTRATION OF CARCINOGEN UNTIL END OF EXPERIMENT (STUDY DURATION: APPROXIMAT, Route [Inhibitor]: ORAL, Species: MOUSE, Strain/Sex: SWISS/MALE, FEMALE, Target Tissue: Type of Lesion: LUNG: TUMORS, Dose [Carcinogen]: 1.1 MG/D 5 D/WK UNTIL 12 MO OF AGE, Promoter: NONE USED); 15/29 (52%), 2/12 (17%), 67%, p<0.1 (Carcinogen: ISONIAZID, 54-85-3, Dose [Inhibitor]: 1.1 MG/MOUSE/D SIMULTANEOUSLY WITH CARCINOGEN 6 D/WK (STUDY DURATION: 24 MO), Route [Inhibitor]: INTRAGASTRIC, Species: MOUSE, Strain/Sex: SWISS/MALE, Target Tissue: Type of Lesion: LUNG: TUMOR, Dose [Carcinogen]: 1.1 MG/MOUSE/D SIMULTANEOUSLY WITH AGENT, Promoter: NONE USED).
Take `OCC(S)CS` (stereo unspecified): the “tumour outcome (control, treated, inhibition, significance)” value reads like this: (Carcinogen: TRANS-5-AMINO-3-[2-(5-NITRO-2-FURYL)VINYL]-1,2,4-OXADIAZOLE;SQL8506, 28754-68-9, Carcinogen: TRANS-5-AMINO-3-[2-(5-NITRO-2-FURYL)VINYL]-1,2,4-OXADIAZOLE;SQL8506, 28754-68-9, Dose [Inhibitor]: 80 MG/KG 18 HR BEFORE THE 1ST CARCINOGEN DOSE FOLLOWED BY ADDITIONAL INJECTIONS IMMEDIATELY BEFORE EACH DOSE OF CARCINOG, Route [Inhibitor]: INTRAPERITONEAL, Species: MOUSE, Strain/Sex: CD-1/FEMALE, Target Tissue: Type of Lesion: LYMPHOID TISSUE: NONTHYMIC LYMPHOMA, Dose [Carcinogen]: 1 G/KG 2/D FOR 5 D EVERY 4 WK FOR 3 COURSES OF TREATMENT, Promoter: NONE USED) 8/137 (6%), 1/26 (4%), 33%, not calculated; (Carcinogen: TRANS-5-AMINO-3-[2-(5-NITRO-2-FURYL)VINYL]-1,2,4-OXADIAZOLE;SQL8506, 28754-68-9, Carcinogen: TRANS-5-AMINO-3-[2-(5-NITRO-2-FURYL)VINYL]-1,2,4-OXADIAZOLE;SQL8506, 28754-68-9, Dose [Inhibitor]: 80 MG/KG 18 HR BEFORE THE 1ST CARCINOGEN DOSE FOLLOWED BY ADDITIONAL INJECTIONS IMMEDIATELY BEFORE EACH DOSE OF CARCINOG, Route [Inhibitor]: INTRAPERITONEAL, Species: MOUSE, Strain/Sex: CD-1/FEMALE, Target Tissue: Type of Lesion: LYMPHOID TISSUE: THYMIC LYMPHOMA, Dose [Carcinogen]: 1 G/KG 2/D FOR 5 D EVERY 4 WK FOR 3 COURSES OF TREATMENT, Promoter: NONE USED) 22/137 (16%), 4/26 (15%), 6%, not calculated; (Carcinogen: TRANS-5-AMINO-3-[2-(5-NITRO-2-FURYL)VINYL]-1,2,4-OXADIAZOLE;SQL8506, 28754-68-9, Carcinogen: TRANS-5-AMINO-3-[2-(5-NITRO-2-FURYL)VINYL]-1,2,4-OXADIAZOLE;SQL8506, 28754-68-9, Dose [Inhibitor]: 80 MG/KG 18 HR BEFORE THE 1ST CARCINOGEN DOSE FOLLOWED BY ADDITIONAL INJECTIONS IMMEDIATELY BEFORE EACH DOSE OF CARCINOG, Route [Inhibitor]: INTRAPERITONEAL, Species: MOUSE, Strain/Sex: CD-1/FEMALE, Target Tissue: Type of Lesion: STOMACH: SQUAMOUS CARCINOMA, Dose [Carcinogen]: 1 G/KG 2/D FOR 5 D EVERY 4 WK FOR 3 COURSES OF TREATMENT, Promoter: NONE USED) 60/137 (44%), 14/26 (54%), -23%, not calculated.
As for `OC1C(O)C(O)C(O)C(O)C1O` (stereo unspecified), where the note is “Carcinogen: 7,12-DIMETHYLBENZ[A]ANTHRACENE, 57-97-6, Dose [Inhibitor]: 0, 15 MILLIMOLAR IN DRINKING WATER FOR 47 WK BEGINNING 2 WK PRIOR TO CARCINOGEN DOSE (STUDY DURATION: 47 WK), Route [Inhibitor]: ORAL, Species: RAT, Strain/Sex: SPRAGUE-DAWLEY/FEMALE, Target Tissue: Type of Lesion: MAMMARY GLAND: TUMOR, Dose [Carcinogen]: 5 MG IN 1 ML CORN OIL ONCE, Promoter: NONE USED”, the “tumour outcome (control, treated, inhibition, significance)” value is 37/40 (93%), 30/40 (75%), 19%, p<0.05.
